Entries after “also recorded” stand apart in the source; their conditions may differ. Like-named read-outs stand apart in the source and are kept apart here.
What was measured:
AChE (from drosophila) = target: T1, AChE (from drosophila) (Drosophila melanogaster, UniProt P07140); experiment: In vitro AChE inhibitory activity (Acetylcholinesterase Detection Kit); assay type: biochemical; details: for inhibition at 1500 µg/mL: read-out: AChE inhibitory activitiy % inhibition (1.5 mg/mL); for inhibitory activities toward cholinesterase (in words): summary of Table 1
T1 construct: purchased Jing Peng Bio-Pesticide Co., Ltd. Shandong, P. R. China
Experimental: (§1) In vitro inhibitory activity test of these glycosides against AChE and XOD was studied by using Acetylcholinesterase Detection Kit and Xanthine Oxidase Detection Kit.
Assay of the in vitro AChE/XOD inhibitory activity: The tests of in vitro inhibitory activity of these PPGs against AChE (from drosophila, Jing Peng Bio-Pesticide Co., Ltd. Shandong, P. R. China) and Xanthine Oxidase (from buttermilk, Sigma Co., Ltd. X4875) were carried out by using AChE (or XOD) Detection Kits (Jian Cheng Bioengineering Institute, Nan Jin, Jiangsu, P. R. China), following the manufacturer’s protocol. All the compounds were dissolved in 1% DMSO. […] The results were read on a microplate reader at the wavelength of 450 nm/530 nm. All the assays were performed in triplicate with three independent experiments. The IC50 values were calculated using XLfit software.

[1] = target: T2, Xanthine Oxidase (from buttermilk) (Bos taurus, UniProt P80457); experiment: In vitro XOD inhibitory activity (Xanthine Oxidase Detection Kit); assay type: biochemical; details: for inhibition at 1500 µg/mL: read-out: XOD inhibitory activity % inhibition (1.5 mg/mL); for XOD inhibitory activity (in words): summary of Table 1; for XOD inhibitory activity % inhibition (1.5 mg/mL): compounds in 1% DMSO, mean ± SD, triplicate
T2 construct: Xanthine Oxidase (from buttermilk, Sigma Co., Ltd. X4875); purchased Sigma Co., Ltd. X4875; host or cells: buttermilk
Experimental: as §1
Assay of the in vitro AChE/XOD inhibitory activity: The tests of in vitro inhibitory activity of these PPGs against AChE (from drosophila, Jing Peng Bio-Pesticide Co., Ltd. Shandong, P. R. China) and Xanthine Oxidase (from buttermilk, Sigma Co., Ltd. X4875) were carried out by using AChE (or XOD) Detection Kits (Jian Cheng Bioengineering Institute, Nan Jin, Jiangsu, P. R. China), following the manufacturer’s protocol. All the compounds were dissolved in 1% DMSO. […] If an inhibition of more than 30% was observed, the compound was classified as active. The active compounds were consequently tested at seven concentrations. The results were read on a microplate reader at the wavelength of 450 nm/530 nm. All the assays were performed in triplicate with three independent experiments. The IC50 values were calculated using XLfit software.

[2] = 1.5 mg/mL, compounds in 1% DMSO, mean ± SD, triplicate
[3] = seven concentrations, mean ± SD of triplicate independent experiments, – = not active
[4] = read-out: AChE inhibitory activitiy IC50, seven concentrations, mean ± SD of triplicate independent experiments, – = not active
[5] = read-out: XOD inhibitory activity IC50, seven concentrations, mean ± SD of triplicate independent experiments, – = not active
[6] = seven concentrations, mean ± SD of triplicate independent experiments, – = not active, read-out: AChE inhibitory activitiy IC50

Row | Compound | inhibition at 1500 µg/mL (AChE (from drosophila); [2]) | AChE inhibitory activitiy IC50 (μM) (AChE (from drosophila); [3]) | inhibition at 1500 µg/mL [1] | XOD inhibitory activity IC50 (μM) [1, 3] | IC50 (AChE (from drosophila); [4]) | IC50 [1, 5] | IC50 (AChE (from drosophila); [6]) | further results
1 | COc1cc(C=CCO[C@@H]2O[C@H](CO)[C@@H](O)[C@H](O)[C@H]2O)cc(OC)c1 [Compound 10c, 3,5-Dimethoxycinnamyl β-D-glucopyranoside] | 23 ± 0.85% | – (not active (less than 30% inhibition at 1.5 mg/mL)) | 21 ± 1.21% | – (not active (less than 30% inhibition at 1.5 mg/mL)) | – | – | – | –
2 | COc1ccc(C=CCO[C@@H]2O[C@H](CO)[C@@H](O)[C@H](O)[C@H]2O)cc1O [Compound 16d, 3-Hydroxy-4-methoxycinnamyl β-D-glucopyranoside] | 66 ± 3.45% | – | 56 ± 2.34% | – | 10.3 ± 2 µM | 16.5 ± 1.1 µM | – | XOD inhibitory activity (in words) [1]: have XOD inhibitory activity
3 | COc1ccc(C=CCO[C@@H]2O[C@H](CO[C@@H]3OC[C@H](O)[C@H](O)[C@H]3O)[C@@H](O)[C@H](O)[C@H]2O)cc1 [Compound 22, 4-Methoxycinnamyl 6-O-(α-L-arabinopyranosyl)-β-D-glucopyranoside] | 72 ± 0.1% | – | 65 ± 0.1% | – | – | 5.71 ± 0.1 µM | 4.23 ± 0.1 µM | –
4 | OC[C@H]1O[C@@H](OCC=Cc2ccc(Br)cc2)[C@H](O)[C@@H](O)[C@@H]1O [Compound 10l, 4-Bromocinnamyl β-D-glucopyranoside] | 57 ± 1.22% | – | 55 ± 3.67% | – | 22.4 ± 0.6 µM | 19.6 ± 1.5 µM | – | inhibitory activities toward cholinesterase (in words) (AChE (from drosophila)): moderate inhibitory activities; XOD inhibitory activity (in words) [1]: have XOD inhibitory activity
5 | 4-Trifluoromethycinnamyl β-D-glucopyranoside [Compound 10f] | – | – (not active (less than 30% inhibition at 1.5 mg/mL)) | – | – (not active (less than 30% inhibition at 1.5 mg/mL)) | – | – | – | AChE inhibitory activitiy % inhibition (1.5 mg/mL) (AChE (from drosophila); [2]): 22 ± 2.44%; XOD inhibitory activity % inhibition (1.5 mg/mL) [1]: 5 ± 0.22%
6 | OC[C@H]1O[C@@H](OCC=Cc2ccccc2F)[C@H](O)[C@@H](O)[C@@H]1O [Compound 10i, 2-Fluorocinnamyl β-D-glucopyranoside] | 18 ± 2.11% | – (not active (less than 30% inhibition at 1.5 mg/mL)) | 24 ± 1.32% | – (not active (less than 30% inhibition at 1.5 mg/mL)) | – | – | – | –
7 | O[C@@H]1[C@@H](O)[C@H](OCC=Cc2ccccc2)O[C@H](CO[C@@H]2OC[C@@H](O)[C@H](O)[C@H]2O)[C@H]1O [Compound 21, Cinnamyl 6-O-(β-D-xylopyranosyl)-β-D-glucopyranoside] | 82 ± 0.11% | – | 74 ± 0.12% | – | 3.71 ± 0.1 µM | 4.56 ± 0.1 µM | – | –
8 | COc1cc(C=CCO[C@@H]2O[C@H](CO)[C@@H](O)[C@H](O)[C@H]2O)cc(OC)c1OC [Compound 10h, 3,4,5-Trimethoxycinnamyl β-D-glucopyranoside] | 17 ± 4.33% | – (not active (less than 30% inhibition at 1.5 mg/mL)) | 33 ± 2.16% | – | – | – | – | IC50 [1]: 69.3 ± 1.3 µM
9 | COc1cccc(C=CCO[C@@H]2O[C@H](CO)[C@@H](O)[C@H](O)[C@H]2O)c1OC [Compound 10e, 2,3-Dimethoxycinnamyl β-D-glucopyranoside] | 34 ± 4.36% | – | 22 ± 0.85% | – (not active (less than 30% inhibition at 1.5 mg/mL)) | 71.2 ± 2.8 µM | – | – | –
10 | C[C@@H]1O[C@@H](OC[C@H]2O[C@@H](OCC=Cc3ccccc3)[C@H](O)[C@@H](O)[C@@H]2O)[C@H](O)[C@H](O)[C@H]1O [Compound 23, Cinnamyl 6-O-(α-L-rhamnopyranosyl)-β-D-glucopyranoside] | 81 ± 0.05% | – | 60 ± 0.01% | – | – | 8.21 µM | 2.05 µM | –
11 | O[C@@H]1[C@@H](O)[C@H](OC/C=C/c2ccccc2)O[C@H](CO[C@@H]2OC[C@H](O)[C@H](O)[C@H]2O)[C@H]1O [Compound 20, Rosavin] | 85 ± 0.21% | – | 73 ± 0.02% | – | – | – | 1.72 ± 0.1 µM | IC50 [1]: 5.55 µM
12 | OC[C@H]1O[C@@H](OCC=Cc2ccc(O)cc2)[C@H](O)[C@@H](O)[C@@H]1O [Compound 16a, 4-Hydroxycinnamyl β-D-glucopyranoside] | 34 ± 2.67% | – | 32 ± 1.63% | – | – | – | 75.2 ± 1.2 µM | IC50 [1]: 79.3 ± 0.7 µM
13 | COc1ccc(C=CCO[C@@H]2O[C@H](CO)[C@@H](O)[C@H](O)[C@H]2O)cc1 [Compound 10a, 4-Methoxycinnamyl β-D-glucopyranoside] | 15 ± 3.27% | – (not active (less than 30% inhibition at 1.5 mg/mL)) | 10 ± 2.22% | – (not active (less than 30% inhibition at 1.5 mg/mL)) | – | – | – | –
14 | COc1ccc(C=CCO[C@@H]2O[C@H](CO)[C@@H](O)[C@H](O)[C@H]2O)cc1OC [Compound 10d, 3,4-Dimethoxycinnamyl β-D-glucopyranoside] | 43 ± 1.35% | – | 35 ± 3.22% | – | – | – | 43.5 ± 0.6 µM | IC50 [1]: 73.5 ± 1.5 µM
15 | OC[C@H]1O[C@@H](OCC=Cc2ccc(Cl)cc2)[C@H](O)[C@@H](O)[C@@H]1O [Compound 10j, 4-Chlorocinnamyl β-D-glucopyranoside] | 42 ± 3.23% | – | 50 ± 2.35% | – | 38.3 ± 1.4 µM | 24.3 ± 1.4 µM | – | XOD inhibitory activity (in words) [1]: have XOD inhibitory activity
16 | OC[C@H]1O[C@@H](OCC=Cc2cccc(O)c2)[C@H](O)[C@@H](O)[C@@H]1O [Compound 16b, 3-Hydroxycinnamyl β-D-glucopyranoside] | 75 ± 2.12% | – | 41 ± 2.22% | – | 7.62 ± 1.1 µM | 29.6 ± 1.2 µM | – | XOD inhibitory activity (in words) [1]: have XOD inhibitory activity
17 | OC[C@H]1O[C@@H](OCC=Cc2ccc(F)c(F)c2)[C@H](O)[C@@H](O)[C@@H]1O [Compound 10k, 3,4-Difluorocinnamyl β-D-glucopyranoside] | 43 ± 2.31% | – | 37 ± 2.78% | – | – | 55.4 ± 1.3 µM | 35.5 ± 1.1 µM | –
18 | COc1cc(C=CCO[C@@H]2O[C@H](CO)[C@@H](O)[C@H](O)[C@H]2O)ccc1O [Compound 16c, 4-Hydroxy-3-methoxycinnamyl β-D-glucopyranoside] | – | – | 23 ± 0.93% | – (not active (less than 30% inhibition at 1.5 mg/mL)) | 25.7 ± 0.7 µM | – | – | inhibition at 1500 µg/mL (AChE (from drosophila)): 54 ± 2.34%
19 | OC[C@H]1O[C@@H](OC/C=C/c2ccccc2)[C@H](O)[C@@H](O)[C@@H]1O [Compound 10m, Cinnamyl β-D-glucopyranoside] | 16 ± 0.44% | – (not active (less than 30% inhibition at 1.5 mg/mL)) | 38 ± 2.83% | – | – | 93.2 ± 1.4 µM | – | –
20 | COc1ccccc1C=CCO[C@@H]1O[C@H](CO)[C@@H](O)[C@H](O)[C@H]1O [Compound 10b, 2-Methoxycinnamyl β-D-glucopyranoside] | 62 ± 4.53% | – | 12 ± 3.12% | – (not active (less than 30% inhibition at 1.5 mg/mL)) | – | – | – | IC50 (AChE (from drosophila)): 15.5 ± 2.1 µM; inhibitory activities toward cholinesterase (in words) (AChE (from drosophila)): moderate inhibitory activities; also recorded: more potent than the corresponding unsubstituted compound 10m
21 | 3-Bromo-4-ethoxy-5-methoxycinnamylcinnamyl β-D-glucopyranoside [Compound 10n] | – | – | – | – | – | – | 87.3 ± 2.1 µM | AChE inhibitory activitiy % inhibition (1.5 mg/mL) (AChE (from drosophila); [2]): 36 ± 3.55%; XOD inhibitory activity % inhibition (1.5 mg/mL) [1]: 28 ± 1.74%; IC50 ([1]; seven concentrations, mean ± SD of triplicate independent experiments, – = not active, read-out: XOD inhibitory activity IC50): 97.3 ± 0.8 µM
22 | OC[C@H]1O[C@@H](OCC=Cc2ccc3c(c2)OCO3)[C@H](O)[C@@H](O)[C@@H]1O [Compound 10g, 3,4-Methylenedioxycinnamyl β-D-glucopyranoside] | 15 ± 3.55% | – (not active (less than 30% inhibition at 1.5 mg/mL)) | 13 ± 1.43% | – (not active (less than 30% inhibition at 1.5 mg/mL)) | – | – | – | –
